Source: article PMC12207908, “The broad‐spectrum antimicrobial peptide BMAP‐27B potentiates carbapenems against NDM‐producing pathogens in food animals” (mLife, 2025)
In brackets after ≈: the same amount, converted by molar mass.

Columns and labels:
[1] = test system: CREC2; assay: MIC, broth microdilution; type: cell-based; details: Escherichia coli, MHB, 1 × 10^6 CFU/ml, 16–18 h, 37°C, independent triplicates
Description: (§1) The MIC of BMAP‐27B and other antibiotics was determined using the broth microdilution method, following the guidelines established by the Clinical and Laboratory Standards Institute (CLSI). Briefly, the bacterial cultures were grown to the logarithmic growth phase and subsequently diluted in Mueller–Hinton broth (MHB) to achieve a final concentration of 1 × 10^6 CFU/ml. BMAP‐27B and the other antibiotics were prepared in twofold serial dilutions in MHB and mixed with an equal volume of bacterial suspension in 96‐well polypropylene microtiter plates.

[2] = test system: CREC3; assay: MIC, broth microdilution; type: cell-based; details: Escherichia coli, MHB, 1 × 10^6 CFU/ml, 16–18 h, 37°C, independent triplicates
Description: as §1

[3] = test system: CRAB2; assay: MIC, broth microdilution; type: cell-based; details: Acinetobacter baumannii, MHB, 1 × 10^6 CFU/ml, 16–18 h, 37°C, independent triplicates
Description: as §1

[4] = test system: CRAB1; assay: MIC, broth microdilution; type: cell-based; details: Acinetobacter baumannii, MHB, 1 × 10^6 CFU/ml, 16–18 h, 37°C, independent triplicates
Description: as §1

[5] = test system: CREC7; assay: MIC, broth microdilution; type: cell-based; details: Escherichia coli, MHB, 1 × 10^6 CFU/ml, 16–18 h, 37°C, independent triplicates
Description: as §1

[6] = test system: CRCB1; assay: MIC, broth microdilution; type: cell-based; details: Citrobacter, MHB, 1 × 10^6 CFU/ml, 16–18 h, 37°C, independent triplicates
Description: as §1

[7] = test system: En. faecium (Clinical; MDR; pig, faeces), upper row; assay: MIC, broth microdilution; type: cell-based; details: Enterococcus faecium, En. faecium clinical MDR isolate, MHB, 16–18 h, 37°C, independent triplicates
Description: as §1

[8] = test system: CRCB3; assay: MIC, broth microdilution; type: cell-based; details: Citrobacter, MHB, 1 × 10^6 CFU/ml, 16–18 h, 37°C, independent triplicates
Description: as §1

[9] = test system: CREC6; assay: MIC, broth microdilution; type: cell-based; details: Escherichia coli, MHB, 1 × 10^6 CFU/ml, 16–18 h, 37°C, independent triplicates
Description: as §1

[10] = test system: CREC1; assay: MIC, broth microdilution; type: cell-based; details: Escherichia coli, MHB, 1 × 10^6 CFU/ml, 16–18 h, 37°C, independent triplicates
Description: as §1

[11] = test system: PREC1; assay: MIC, broth microdilution; type: cell-based; details: Escherichia coli, MHB, 1 × 10^6 CFU/ml, 16–18 h, 37°C, independent triplicates
Description: as §1

[12] = test system: CREC4; assay: MIC, broth microdilution; type: cell-based; details: Escherichia coli, MHB, 1 × 10^6 CFU/ml, 16–18 h, 37°C, independent triplicates
Description: as §1

[13] = test system: PREC3; assay: MIC, broth microdilution; type: cell-based; details: Escherichia coli, MHB, 1 × 10^6 CFU/ml, 16–18 h, 37°C, independent triplicates
Description: as §1

[14] = test system: PREC2; assay: MIC, broth microdilution; type: cell-based; details: Escherichia coli, MHB, 1 × 10^6 CFU/ml, 16–18 h, 37°C, independent triplicates
Description: as §1

[15] = test system: P. aeruginosa UCBPP-PA01; assay: MIC, broth microdilution; type: cell-based; details: Pseudomonas aeruginosa, UCBPPPA01, MHB, 1 × 10^6 CFU/ml, 16–18 h, 37°C, independent triplicates
Description: as §1

[16] = test system: S. aureus ATCC; assay: MIC, broth microdilution; type: cell-based; details: Staphylococcus aureus, MHB, 1 × 10^6 CFU/ml, 16–18 h, 37°C, independent triplicates
Description: as §1

[17] = test system: CRKP1; assay: MIC, broth microdilution; type: cell-based; details: Klebsiella pneumoniae, MHB, 1 × 10^6 CFU/ml, 16–18 h, 37°C, independent triplicates
Description: as §1

[18] = test system: PRCB1; assay: MIC, broth microdilution; type: cell-based; details: Citrobacter, MHB, 1 × 10^6 CFU/ml, 16–18 h, 37°C, independent triplicates
Description: as §1

[19] = test system: CRKP3; assay: MIC, broth microdilution; type: cell-based; details: Klebsiella pneumoniae, MHB, 1 × 10^6 CFU/ml, 16–18 h, 37°C, independent triplicates
Description: as §1

[20] = test system: CRCB2; assay: MIC, broth microdilution; type: cell-based; details: Citrobacter, MHB, 1 × 10^6 CFU/ml, 16–18 h, 37°C, independent triplicates
Description: as §1

[21] = test system: P. aeruginosa UCBPP-PA14; assay: MIC, broth microdilution; type: cell-based; details: Pseudomonas aeruginosa, MHB, 1 × 10^6 CFU/ml, 16–18 h, 37°C, independent triplicates
Description: as §1

[22] = test system: Salmonella SL1344; assay: MIC, broth microdilution; type: cell-based; details: MHB, 1 × 10^6 CFU/ml, 16–18 h, 37°C, independent triplicates
Description: as §1

[23] = test system: CRKP5; assay: MIC, broth microdilution; type: cell-based; details: Klebsiella pneumoniae, MHB, 1 × 10^6 CFU/ml, 16–18 h, 37°C, independent triplicates
Description: as §1

[24] = test system: En. faecium (Clinical; MDR; pig, faeces), lower row; assay: MIC, broth microdilution; type: cell-based; details: Enterococcus faecium, En. faecium clinical MDR isolate, MHB, 16–18 h, 37°C, independent triplicates
Description: as §1

[25] = test system: CRKP2; assay: MIC, broth microdilution; type: cell-based; details: Klebsiella pneumoniae, MHB, 1 × 10^6 CFU/ml, 16–18 h, 37°C, independent triplicates
Description: as §1

[26] = test system: CREC5; assay: MIC, broth microdilution; type: cell-based; details: Escherichia coli, MHB, 1 × 10^6 CFU/ml, 16–18 h, 37°C, independent triplicates
Description: as §1

[27] = test system: CRKP4; assay: MIC, broth microdilution; type: cell-based; details: Klebsiella pneumoniae, MHB, 1 × 10^6 CFU/ml, 16–18 h, 37°C, independent triplicates
Description: as §1

[28] = test system: CRKP6; assay: MIC, broth microdilution; type: cell-based; details: Klebsiella pneumoniae, MHB, 1 × 10^6 CFU/ml, 16–18 h, 37°C, independent triplicates
Description: as §1

[29] = test system: CRKP2; assay: Mouse peritonitis model induced by CRKP2; type: in vivo, BALB/c mice; details: 1.0 × 10^8 CFU CRKP2 i.p.; treatment at 1 and 6 h; BMAP‐27B 3, 6 or 9 mg/kg, MEM 10 mg/kg, combination 3 + 10 mg/kg; tissues 24 h after infection
Description: Male BALB/c mice were used in this study, with six mice per group. The mice were infected via an intraperitoneal injection with a suspension of 1.0 × 10^8 CFU of CRKP2. At 1 and 6 h postinfection, the mice were treated with PBS, BMAP‐27B at doses of 3, 6, or 9 mg/kg, MEM at 10 mg/kg alone, or a combination of BMAP‐27B (3 mg/kg) and MEM (10 mg/kg). After 24 h of bacterial challenge, the surviving mice were euthanized by cervical dislocation. The kidneys, livers, spleens, and lungs of each mouse were harvested within […] postinfection. A portion of these organs was taken for histologic analysis using H&E staining, while the remaining tissue samples were weighed, homogenized in sterile normal saline, and serially diluted in saline. A volume of 100 µl of the homogenate dilutions was uniformly plated onto agar plates containing MEM (8 μg/ml). After overnight incubation at 37°C, colonies were counted and the results were expressed as CFU/g.

Row | MIC [1] | MIC [2] | MIC [3] | MIC [4] | MIC [5] | MIC [6] | MIC [7] | MIC [8] | MIC [9] | MIC [10] | MIC [11] | MIC [12] | MIC [13] | MIC [14] | MIC [15] | MIC [16] | MIC [17] | MIC [18] | MIC [19] | MIC [20] | Compound | also measured
1 | 4 µg/mL (≈ 6.83 µM) | 2 µg/mL (≈ 3.42 µM) | > 32 µg/mL | > 32 µg/mL | 2 µg/mL (≈ 3.42 µM) | 4 µg/mL (≈ 6.83 µM) | 16 µg/mL (≈ 27.3 µM) | 8 µg/mL (≈ 13.7 µM) | 16 µg/mL (≈ 27.3 µM) | 2 µg/mL (≈ 3.42 µM) | 2 µg/mL (≈ 3.42 µM) | 4 µg/mL (≈ 6.83 µM) | 2 µg/mL (≈ 3.42 µM) | 8 µg/mL (≈ 13.7 µM) | 2 µg/mL (≈ 3.42 µM) | 8 µg/mL (≈ 13.7 µM) | – | – | – | – | NCC[C@H](O)C(=O)N[C@@H]1C[C@H](N)[C@@H](O[C@H]2O[C@H](CN)[C@@H](O)[C@H](O)[C@H]2O)[C@H](O)[C@H]1O[C@H]1O[C@H](CO)[C@@H](O)[C@H](N)[C@H]1O [AMK, amikacin] | –
2 | 16 µg/mL (≈ 41.7 µM) | 32 µg/mL (≈ 83.4 µM) | > 32 µg/mL | > 32 µg/mL | 32 µg/mL (≈ 83.4 µM) | 32 µg/mL (≈ 83.4 µM) | 8 µg/mL (≈ 20.9 µM) | 32 µg/mL (≈ 83.4 µM) | 32 µg/mL (≈ 83.4 µM) | > 32 µg/mL | < 1 µg/mL | > 32 µg/mL | < 1 µg/mL | < 1 µg/mL | < 1 µg/mL | < 1 µg/mL | > 32 µg/mL | < 1 µg/mL | > 32 µg/mL | 32 µg/mL (≈ 83.4 µM) | C[C@@H](O)[C@H]1C(=O)N2C(C(=O)O)=C(S[C@@H]3CN[C@H](C(=O)N(C)C)C3)[C@H](C)[C@H]12 [MEM, meropenem] | MIC [21]: 2 µg/mL (≈ 5.22 µM); MIC [22]: < 1 µg/mL; MIC [23]: 32 µg/mL (≈ 83.4 µM); MIC [24]: 16 µg/mL (≈ 41.7 µM); MIC [25]: > 32 µg/mL; MIC [26]: 32 µg/mL (≈ 83.4 µM); MIC [27]: 32 µg/mL (≈ 83.4 µM); MIC [28]: > 32 µg/mL; bacterial titers in the liver, spleen, lung, and kidneys compared to the infection group [29]: only slightly lower
3 | > 32 µg/mL | 32 µg/mL (≈ 107 µM) | > 32 µg/mL | > 32 µg/mL | 32 µg/mL (≈ 107 µM) | > 32 µg/mL | > 32 µg/mL | 8 µg/mL (≈ 26.7 µM) | 32 µg/mL (≈ 107 µM) | > 32 µg/mL | < 1 µg/mL | > 32 µg/mL | < 1 µg/mL | < 1 µg/mL | < 1 µg/mL | < 1 µg/mL | 32 µg/mL (≈ 107 µM) | < 1 µg/mL | > 32 µg/mL | 32 µg/mL (≈ 107 µM) | C[C@@H](O)[C@H]1C(=O)N2C(C(=O)O)=C(SCCN=CN)C[C@H]12 [IMP, imipenem] | MIC [21]: 4 µg/mL (≈ 13.4 µM); MIC [22]: < 1 µg/mL; MIC [23]: 4 µg/mL (≈ 13.4 µM); MIC [24]: > 32 µg/mL; MIC [25]: 32 µg/mL (≈ 107 µM); MIC [26]: 32 µg/mL (≈ 107 µM); MIC [27]: 16 µg/mL (≈ 53.4 µM); MIC [28]: 4 µg/mL (≈ 13.4 µM)
